Assay results from ChEMBL document CHEMBL4130611, “Serpulanines A to C, N-Oxidized Tyrosine Derivatives Isolated from the Sri Lankan Fungus Serpula sp.: Structure Elucidation, Synthesis, and Histone Deacetylase Inhibition” (J Nat Prod, 2018).
Activity calls are given as the source filed them. The calls are words filed in the database; no cut-off is given here.

Experiments:
[1] = target: Histone deacetylase 9 (Homo sapiens) (UniProt Q9UKV0); test: Inhibition of human HDAC9 at 330 uM by HDAC-Glo1/2 luminescent assay
[2] = target: T1, Protein deacetylase HDAC6 (Homo sapiens) (UniProt Q9UBN7); test: Inhibition of human HDAC6 at 330 uM by HDAC-Glo1/2 luminescent assay relative to control
T1 sequence (whole entry): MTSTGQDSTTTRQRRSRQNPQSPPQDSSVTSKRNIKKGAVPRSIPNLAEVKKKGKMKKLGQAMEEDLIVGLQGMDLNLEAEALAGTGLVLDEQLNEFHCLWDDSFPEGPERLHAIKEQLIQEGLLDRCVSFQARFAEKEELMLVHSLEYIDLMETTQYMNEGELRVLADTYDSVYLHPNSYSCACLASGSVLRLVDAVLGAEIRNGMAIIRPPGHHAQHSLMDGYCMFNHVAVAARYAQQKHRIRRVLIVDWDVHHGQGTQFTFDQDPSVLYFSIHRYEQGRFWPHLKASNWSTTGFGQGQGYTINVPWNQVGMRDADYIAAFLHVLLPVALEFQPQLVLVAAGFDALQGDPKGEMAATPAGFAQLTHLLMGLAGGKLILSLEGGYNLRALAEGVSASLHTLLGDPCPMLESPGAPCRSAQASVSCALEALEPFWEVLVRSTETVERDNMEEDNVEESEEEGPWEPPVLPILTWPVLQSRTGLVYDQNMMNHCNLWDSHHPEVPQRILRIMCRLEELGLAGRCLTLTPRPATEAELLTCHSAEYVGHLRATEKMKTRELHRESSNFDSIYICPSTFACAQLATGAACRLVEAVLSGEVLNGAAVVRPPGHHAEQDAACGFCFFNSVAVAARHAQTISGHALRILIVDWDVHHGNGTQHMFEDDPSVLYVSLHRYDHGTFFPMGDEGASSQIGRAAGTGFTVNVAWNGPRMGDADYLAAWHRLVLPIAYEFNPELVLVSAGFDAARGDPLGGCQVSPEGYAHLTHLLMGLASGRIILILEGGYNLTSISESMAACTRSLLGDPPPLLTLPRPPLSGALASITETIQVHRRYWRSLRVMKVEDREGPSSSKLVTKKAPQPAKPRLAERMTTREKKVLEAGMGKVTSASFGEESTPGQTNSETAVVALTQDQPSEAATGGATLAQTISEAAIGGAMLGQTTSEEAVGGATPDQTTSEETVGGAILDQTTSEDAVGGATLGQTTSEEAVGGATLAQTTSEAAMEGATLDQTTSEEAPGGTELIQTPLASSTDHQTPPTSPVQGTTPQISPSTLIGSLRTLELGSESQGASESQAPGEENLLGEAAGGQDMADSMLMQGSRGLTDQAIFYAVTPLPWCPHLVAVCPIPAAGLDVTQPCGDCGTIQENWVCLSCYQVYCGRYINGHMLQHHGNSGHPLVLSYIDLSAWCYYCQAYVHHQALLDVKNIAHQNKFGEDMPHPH

[3] = (§1) Inhibition of class 2 HDAC in mouse A9 cells after 30 mins by luminescent assay; assay type: cell-based
[4] = tested on: A9; test: as §1; assay type: cell-based
[5] = (§2) Inhibition of class 1 HDAC in mouse A9 cells after 30 mins by luminescent assay; assay type: cell-based
[6] = tested on: A9; test: as §2; assay type: cell-based

Histone deacetylase 9 (Homo sapiens), sequence (Q9UKV0 whole entry): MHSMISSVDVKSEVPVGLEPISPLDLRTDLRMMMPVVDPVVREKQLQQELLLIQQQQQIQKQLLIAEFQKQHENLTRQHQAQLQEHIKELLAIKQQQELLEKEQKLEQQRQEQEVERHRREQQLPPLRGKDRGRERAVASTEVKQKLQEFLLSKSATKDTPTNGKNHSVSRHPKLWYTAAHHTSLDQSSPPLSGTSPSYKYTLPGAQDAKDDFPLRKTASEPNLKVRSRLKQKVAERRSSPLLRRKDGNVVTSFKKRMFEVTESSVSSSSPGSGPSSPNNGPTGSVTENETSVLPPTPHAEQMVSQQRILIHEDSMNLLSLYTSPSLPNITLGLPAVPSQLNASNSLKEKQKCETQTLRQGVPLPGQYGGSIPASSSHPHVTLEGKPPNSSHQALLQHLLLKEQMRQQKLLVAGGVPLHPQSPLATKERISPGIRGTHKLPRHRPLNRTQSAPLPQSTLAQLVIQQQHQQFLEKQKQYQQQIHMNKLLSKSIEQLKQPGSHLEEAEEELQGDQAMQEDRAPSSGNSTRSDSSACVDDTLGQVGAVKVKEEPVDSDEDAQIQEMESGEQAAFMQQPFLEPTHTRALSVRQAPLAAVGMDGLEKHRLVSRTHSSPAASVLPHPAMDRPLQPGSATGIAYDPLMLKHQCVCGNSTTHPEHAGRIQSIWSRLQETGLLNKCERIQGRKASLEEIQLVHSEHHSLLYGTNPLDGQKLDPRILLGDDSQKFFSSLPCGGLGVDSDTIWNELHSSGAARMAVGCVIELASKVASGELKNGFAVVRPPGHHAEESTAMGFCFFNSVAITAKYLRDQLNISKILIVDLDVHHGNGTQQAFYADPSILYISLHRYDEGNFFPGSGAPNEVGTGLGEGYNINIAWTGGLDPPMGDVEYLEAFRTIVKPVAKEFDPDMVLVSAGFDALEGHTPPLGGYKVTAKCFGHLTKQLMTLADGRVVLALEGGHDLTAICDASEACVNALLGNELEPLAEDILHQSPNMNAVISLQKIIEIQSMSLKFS

Structure (SMILES) | inhibition [1] | inhibition [2] | IC50 [3] | inhibition [4] | IC50 [5] | inhibition [6]
COC(=O)C(Cc1ccc(OCC=C(C)C)cc1)N(O)C(=O)/C(C)=N/O (stereo unspecified) | inactive | 69% | – | – | – | –
CC(C)=CCOc1ccc(C/C(=N\O)C(=O)NO)cc1 | – | – | 7 µM | Dose-dependent effect | 7 µM | Dose-dependent effect
